The data set is described as follows: Mitochondrial toxicity (Glu/Gal) assay. Format: cell-based. The settings on record: for Score: mitotoxicity score, Glu/Gal assay; for Δ IC50, glu/IC50, gal: ratio IC50 glu / IC50 gal. The source says: The compounds of the invention/examples may have advantages associated with in vitro potency, kill kinetics (i.e. bactericidal effect) in vitro, PK properties, food effect, safety/toxicity (including liver toxicity, coagulation, 5-LO oxygenase), metabolic stability, Ames II negativity, MNT negativity, aqueous based solubility (and ability to formulate) and/or cardiovascular effect e.g. on animals (e.g. anesthetized guinea pig). Data that is generated/calculated may be obtained using standard methods/assays, for instance that are available in the literature or which may be performed by a supplier (e.g. Microsomal Stability Assay—Cyprotex, Mitochondrial toxicity (Glu/Gal) assay—Cyprotex, as well as literature CYP cocktail inhibition assays). GSH can be measured (reactive metabolites, glucuronidation) to observe if a dihydrodiol is observed by LCMS (fragmentation ions), which would correspond to a dihydroxylation on the core heterocycle.

Setting [1] is: galactose medium (Glu/Gal mitotoxicity assay), read-out: IC50, gal.
Where [2] appears, read: glucose medium (Glu/Gal mitotoxicity assay), read-out: IC50, glu.

pIC50: −log10 of the molar value. Read-outs that look alike come from different tables or passages of the source.

On to `Cc1cnc2nc(C3CC3)c(C(=O)NCc3ccc(-c4cc5n(n4)CCN(S(=O)(=O)C(F)(F)F)C5)nc3)n2c1` [Compound 128], for which the pIC50 under setting [1] is less than 3.70 and the negative-log IC50 (pIC50) under setting [2] was less than 3.70.
Consider `O=C(NCc1ccc(-c2cn3c(n2)CN(S(=O)(=O)C(F)(F)F)CC3)cc1)c1c(C(F)F)nc2ccccn12` [Compound 116], for which the Score result was “[x]3” and the “Δ IC50, glu/IC50, gal” value is more than 9.96. Also, the pIC50 (read-out: IC50, gal) was 4.70. Further, the pIC50 (read-out: IC50, glu) is less than 3.70.
Take `CCc1nc2n(c1C(=O)NCc1ccc(-c3nc4n(n3)CCN(S(=O)(=O)C(F)(F)F)C4)cc1)CCN(C)C2` [Compound 65]: the pIC50 reads like this: under setting [1], less than 3.70; under setting [2], less than 3.70.
As to `CCc1nc2ncc(C)cn2c1C(=O)NCc1ccc(-c2nc3n(n2)CCN(C(=O)C(F)(F)F)C3)cc1` [Compound 43], the pIC50 runs as follows: under setting [1], less than 3.70; under setting [2], less than 3.70.
`CCc1nc2ncc(C)cn2c1C(=O)NCc1ccc(-c2nc3n(n2)CCN(S(=O)(=O)C(F)(F)F)C3)cc1` [Compound 110]: the pIC50 was less than 4.00 under setting [1] and less than 4.00 under setting [2].
In the case of `CCc1nc2ccc(C)cn2c1C(=O)NCc1ccc(-c2nc3n(n2)CCN(S(=O)(=O)N(C)C)C3)cc1` [Compound 51], the pIC50 by setting is: under setting [1], less than 3.70; under setting [2], less than 3.70.
As to `CCc1nc2ncc(C)cn2c1C(=O)NCc1nc(-c2nc3n(n2)CCN(S(=O)(=O)C(F)(F)F)C3)cs1` [Compound 75], the pIC50 (read-out: IC50, gal) is less than 3.70 and the pIC50 (read-out: IC50, glu) was less than 3.70.
`Cc1cnc2nc(C3CC3)c(C(=O)NCc3cnc(-c4nc5n(n4)CCN(S(=O)(=O)C(F)(F)F)C5)c(F)c3)n2c1` [Compound 130]: the pIC50 under setting [1] was less than 3.70 and the pIC50 under setting [2] was less than 3.70.
Take `Cc1c(-c2ccc(CNC(=O)c3c(C(F)(F)F)nc4ccccn34)cc2)nn2c1CN(S(=O)(=O)C(F)(F)F)CC2` [Compound 121]: the “Δ IC50, glu/IC50, gal” value was more than 4.31. Further, under “read-out: IC50, gal”, the pIC50 is 4.33. Moreover, the pIC50 (read-out: IC50, glu) was less than 3.70.
For `CC(=O)N1CCn2nc(-c3ccc(CNC(=O)c4c(C5CC5)nc5ncc(C)cn45)cc3)cc2C1` [Compound 96], the negative logarithm of the IC50 (pIC50) reads like this: under setting [1], less than 3.70; under setting [2], less than 3.70.
For `CCc1nc2cc(C)c(Cl)cn2c1C(=O)NCc1cnc(-c2nc3n(n2)CCN(S(=O)(=O)C(F)(F)F)C3)c(F)c1` [Compound 20], the Score result is “[x]1” and the “Δ IC50, glu/IC50, gal” value was more than 1.3. Also, the pIC50 (read-out: IC50, gal) is 3.81. Besides, the pIC50 (read-out: IC50, glu) is less than 3.70.
Turning to `CCc1nc2ccc(C)cn2c1C(=O)NCc1ccc(-c2nc3n(n2)CCN(S(=O)(=O)N2CCCC2)C3)cc1` [Compound 48], the pIC50 under setting [1] was less than 3.70 and the pIC50 under setting [2] is less than 3.70.
For `CCc1nc2ncc(C)cn2c1C(=O)NCc1ccc(-c2nc3n(n2)CCN(CCOC)C3)cc1` [Compound 54], the pIC50 is less than 3.70 under setting [1] and less than 3.70 under setting [2].
As for `CCc1nc2ncc(Cl)cn2c1C(=O)NCc1ccc(-c2cc3n(n2)CCN(S(=O)(=O)C(F)(F)F)C3)cc1` [Compound 91], the Score entry was “[x]3” and the “Δ IC50, glu/IC50, gal” value is listed as more than 12.85. Moreover, the negative-log IC50 (pIC50) (read-out: IC50, gal) is 4.81. Further, the pIC50 (read-out: IC50, glu) was less than 3.70.
As for `O=C(NCc1ccc(-c2nc3n(n2)CCN(S(=O)(=O)C(F)(F)F)C3)cc1)c1c(C(F)(F)F)nc2ccccn12` [Compound 122], the pIC50 by setting is: under setting [1], less than 4.00; under setting [2], less than 4.00.
Turning to `Cc1cnc2nc(C3CC3)c(C(=O)NCc3ccc(-c4nn5c(c4C)CN(S(=O)(=O)C(F)(F)F)CC5)cc3)n2c1` [Compound 102], the Score entry is “[x]3” and the “Δ IC50, glu/IC50, gal” value is on record as more than 6.69. Moreover, the negative-log IC50 (pIC50) (read-out: IC50, gal) is 4.52. In addition, the negative-log IC50 (pIC50) (read-out: IC50, glu) is less than 3.70.
For `CCc1nc2ccc(F)cn2c1C(=O)NCc1ccc(-c2nc3n(n2)CCN(S(=O)(=O)C(F)(F)F)C3)cc1` [Compound 22], in that order: “[x]1”, 1.51, 4.20 and 4.02.

As usually defined, the pIC50 is the IC50 on a negative log10 scale, so that one unit is a factor of ten.
